From ChEMBL document CHEMBL2034948, “The design, synthesis, and biological evaluation of PIM kinase inhibitors” (Bioorg Med Chem Lett, 2012)

Key:
Type in all cases: ADME, organism-based
[1] = Half life in rat at […], iv; design: dose 2.5 mg/kg, route intravenous; conditions: in vivo
[2] = Volume of distribution in rat at […]; design: dose 2.5 mg/kg; conditions: in vivo
[3] = tested on: Rattus norvegicus; assay: Dose normalised AUC in rat at […], po; design: dose 2.5 mg/kg, route oral; conditions: in vivo
[4] = Cmax in rat at […], iv; design: dose 2.5 mg/kg, route intravenous; conditions: in vivo
[5] = Clearance in rat at […]; design: dose 2.5 mg/kg; conditions: in vivo
[6] = Cmax in rat at […], po; design: dose 2.5 mg/kg, route oral; conditions: in vivo
[7] = Plasma concentration in mouse at 100 mg/kg, po after 4 hrs; design: dose 100 mg/kg, route oral
[8] = Plasma concentration in mouse at 100 mg/kg, po after 1 hr; design: dose 100 mg/kg, route oral
[9] = tested on: Rattus norvegicus; assay: Dose normalised AUC in rat at […], iv; design: dose 2.5 mg/kg, route intravenous; conditions: in vivo
[10] = Oral bioavailability in rat at […]; conditions: in vivo
[11] = Half life in rat at […], po; design: dose 2.5 mg/kg, route oral; conditions: in vivo
[12] = Half life in rat at 5 mg/kg, po; design: dose 5 mg/kg, route oral; conditions: in vivo
[13] = tested on: Rattus norvegicus; assay: Dose normalised AUC in rat at 5 mg/kg, po; design: dose 5 mg/kg, route oral; conditions: in vivo
[14] = Oral bioavailability in rat at 5 mg/kg; conditions: in vivo
[15] = Cmax in rat at 5 mg/kg, iv; design: dose 5 mg/kg, route intravenous; conditions: in vivo
[16] = Half life in rat at 5 mg/kg, iv; design: dose 5 mg/kg, route intravenous; conditions: in vivo
[17] = Clearance in rat at 5 mg/kg; design: dose 5 mg/kg; conditions: in vivo
[18] = tested on: Rattus norvegicus; assay: Dose normalised AUC in rat at 5 mg/kg, iv; design: dose 5 mg/kg, route intravenous; conditions: in vivo
[19] = Volume of distribution in rat at 5 mg/kg; design: dose 5 mg/kg; conditions: in vivo
[20] = Cmax in rat at 5 mg/kg, po; design: dose 5 mg/kg, route oral; conditions: in vivo

Row | half-life [1] [h] | Vd [2] [L/kg] | AUC/dose [3] [µM·kg·h/mg] | Cmax [4] [µM] | clearance [5] [mL/min/kg] | Cmax [6] [µM] | concentration at 4 h [7] [µM] | concentration at 1 h [8] [µM] | AUC/dose [9] [µM·kg·h/mg] | bioavailability [10] [%] | half-life [11] [h] | half-life [12] [h] | AUC/dose [13] [µM·kg·h/mg] | bioavailability [14] [%] | Cmax [15] [µM] | half-life [16] [h] | clearance [17] [mL/min/kg] | AUC/dose [18] [µM·kg·h/mg] | Vd [19] [L/kg] | Cmax [20] [µM] | SMILES
1 | 1 | 3.8 | 1.3 | 1.8 | 30.6 | 0.8 | 5 | 13 | 1.7 | 77 | 1 | – | – | – | – | – | – | – | – | – | O=c1[nH]c(CN2CCC2)nc2c1oc1ccc(Br)cc12
2 | – | – | – | – | – | – | 5 | 6 | – | – | – | 1.6 | 0.1 | 13 | 1.8 | 1.4 | 56.2 | 0.8 | 6.2 | 0.1 | N[C@@H]1CCN(Cc2nc3c(oc4ccc(Br)cc43)c(=O)[nH]2)C1
3 | – | – | – | – | – | – | 35 | 93 | – | – | – | 4.7 | 2.9 | 79 | 7.6 | 2.7 | 13.2 | 3.8 | 2.3 | 3.1 | O=c1[nH]c(CN2CC[C@@H](O)C2)nc2c1oc1ccc(Br)cc12
4 | 8.4 | 2.4 | 1.5 | 3.5 | 13.5 | 1.2 | 22 | 78 | 2.6 | 56 | 3.7 | – | – | – | – | – | – | – | – | – | O=c1[nH]c(CN2CC(O)C2)nc2c1oc1ccc(Br)cc12

Row | SMILES | half-life [1] [h] | Vd [2] [L/kg] | AUC/dose [3] [µM·kg·h/mg] | Cmax [4] [µM] | clearance [5] [mL/min/kg] | Cmax [6] [µM] | concentration at 4 h [7] [µM] | concentration at 1 h [8] [µM] | AUC/dose [9] [µM·kg·h/mg] | bioavailability [10] [%] | half-life [11] [h] | half-life [12] [h] | AUC/dose [13] [µM·kg·h/mg] | bioavailability [14] [%] | Cmax [15] [µM] | half-life [16] [h] | clearance [17] [mL/min/kg] | AUC/dose [18] [µM·kg·h/mg] | Vd [19] [L/kg] | Cmax [20] [µM]
5 | CN1C[C@@H]2C[C@H]1CN2Cc1nc2c(oc3ccc(Br)cc32)c(=O)[nH]1 | – | – | – | – | – | – | 7 | 11 | – | – | – | 2.6 | 0.9 | 86 | 1.5 | 2.6 | 34.1 | 1.2 | 7.1 | 0.4
